In paper PMC8071358, “Targeting of the Essential acpP, ftsZ, and rne Genes in Carbapenem-Resistant Acinetobacter baumannii by Antisense PNA Precision Antibacterials” (Biomedicines, 2021):

Experiments:
Type in all cases: cell-based, Acinetobacter baumannii
CRAB strain AC3 = experiment: BPP-PNA MIC, broth microdilution; conditions: MHB without cation (Oxoid); 37 °C, 18 h
Procedure, shortened: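 Non-cation-adjusted MHB, inoculum ~5 × 10^5 CFU/mL; BPP-PNA 2-fold series prepared at 16–0.5 µM before addition to wells. 37 °C, 18 h, linear shaking, OD 595 nm every 20 min. ≥2 biological × 2 technical replicates.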

[1] = system: ftsZ mRNA in CRAB AC44 strain; experiment: Real-time RT-PCR of target mRNA; conditions: AC44, 1 h after treatment, normalised to 16S rRNA, against untreated control
Experimental: (§1) Real time RT-PCR was used to determine the relative expression level of the target gene upon treatment with match BPP-PNA compared to mismatch and untreated controls. The primers for q-PCR were designed to match conserved gene sequences using the AlleleID7 software (Premier Biosoft, San Francisco, CA, USA) (Table S6). Additionally, for more accurate expression of the genes at treatment and untreated conditions, the efficacy of target gene and internal controls primers was calculated by using three consecutive dilutions of the sample cDNA and drawing a standard curve through the slope of the line. […] Statistical analysis was carried out on the gene expression levels normalized to the chosen reference gene (16S rRNA) through −∆Ct analysis. The relative expression of each gene was determined by the 2^−ΔΔCT method. We used the GenEx standard (NormFinder and GeNorm) software (bioMCC, Germany) for analyzing the data.
(§2) An overnight culture of bacteria was diluted 1:100 in MHB medium and was grown with shaking (160 rpm) at 37 °C to reach the OD595 = 0.2. Then, the bacterial culture was treated with different concentrations of BPP-PNA for 1 h and the bacterial cells were harvested by centrifugation and the cell pellet used for RNA extraction.
(§3) Total RNA was isolated using the GeneJET RNA purification kit (ThermoFisher Scientific, Roskilde, Denmark) following the manufacturer’s protocol. RNA samples were treated with DNase for 30 min at 37 °C (Turbo DNA-free kit Ambion/Applied Biosystems, Carlsbad, CA, USA) and then incubated at 72 °C for 5 min to inactivate the DNase. The genomic DNA (gDNA) contamination was checked by polymerase chain reaction (PCR). RNA concentrations were determined by Nanodrop spectrophotometry at 260 nm and purity was checked by determining the absorption ratios at 260/280 nm. Total RNA (0.5 μg) was reverse-transcribed to yield cDNA as template for real-time quantitative PCR using the Quanti Tect reverse transcription kit (Qiagen, Copenhagen, Denmark). The cDNA was diluted 1:50 and used as a template in the reaction. […]

[2] = system: acpP mRNA in CRAB AC44 strain; experiment: Real-time RT-PCR of target mRNA; conditions: AC44, 1 h treatment, normalised to 16S rRNA, against untreated control
Experimental: as §1, §2, §3

Row | Substance | MIC, AC3 (CRAB strain AC3) [µM] | reduction in ftsZ mRNA [1] | reduction in the level of the acpP mRNA [2] [fold]
1 | H-(KFF)3K-eg1-GAGGCCATGAC-NH2 (antisense; N-terminal (KFF)3K-eg1 peptide, C-terminal amide, backbone not given here, further chemistry not given here) [PNA 5612, anti-ftsZ peptide-PNA conjugate, match, −3 to +8] | 4 | up to 60% | 
2 | H-(KFF)3K-eg1-TGATTTGCCAC-NH2 (antisense; N-terminal (KFF)3K-eg1 peptide, C-terminal amide, backbone not given here, further chemistry not given here) [PNA 5639, anti-acpP peptide-PNA conjugate, match, +1 to +11] |  |  | > 34
